Source: patent US20130259999A1, “METHOD FOR INHIBITING YEAST ACTIVITY” (PURAC BIOCHEM B.V., priority 2010, published 2013)
Marks after values point to notes of the source that are not given here.

Legend:
Saccharomyces cerevisiae = conditions: culture medium, WO 2009/031041; cited from earlier work
[1] = system: Saccharomyces cerevisiae (CBS 2190); experiment: Determination of the minimal inhibitor concentration (MIC) in liquid medium; assay type: cell-based; conditions: S. cerevisiae; liquid medium pH 3.5; OD 96 hours after inoculation
Protocol: (§1) Candida albicans was isolated from a commercial beverage, Saccharomyces cerevisiae (CBS 2190) and Zygosaccharomyces bailii (CBS 6708) were obtained from CBS (Centraalbureau voor Schimmelcultures).
(§2) Yeast cultures were grown in liquid medium (per liter: 5 gram filtered Malt Extract from Oxoid Ltd., England, 40 gram glucose and 5 gram Bacto Peptone from Becton Dickinson, USA, at pH 3.5 prepared according to the manufacturer instructions) in screw-capped tubes for at least 48 hours at 25° C.
(§3) For the determination of the MIC, liquid medium was prepared as described above with increasing amounts of inhibitor. 200 μl of each inhibitor-comprising medium was transferred to a panel of a sterile 96-well Microtiter plate. Completed well plates were stored at 4° C. until further use. For the inoculation of the inhibitor-containing liquid media 5 μl of a 72 to 84 hours grown culture was used. The optical density (OD) for every composition was measured 96 hours after inoculation.

[2] = system: Zygosaccharomyces bailii (CBS 6708); experiment: as above; assay type: cell-based; conditions: Z. bailii; liquid medium pH 3.5; OD 96 hours after inoculation
Protocol: as §1, §2, §3

Candida albicans [3] = experiment: as above; assay type: cell-based; conditions: C. Albicans; liquid medium pH 3.5; OD 96 hours after inoculation
Protocol: as §1, §2, §3

[4] = system: Saccharomyces cerevisiae (CBS 2190); experiment: Combination tests: inhibition of yeast in model beverage; assay type: cell-based; conditions: S. cerevisiae, model beverage pH about 3.5, 96 hours
Protocol: as §1
(§4) Inhibition of yeast was evaluated for combinations of EGCG and polylysine or LAE.
(§5) Yeast cultures were grown in model beverage which contained per litter of demineralised water: 40 g of sucrose, 0.35 g of apple flavour (Givaudan), 8.3 g of apple juice concentrate (Gargill) and 1 g of citric acid. The pH was about 3.5. Cultures were grown in screw-capped tubes for at least 48 hours at 25° C.
(§6) The tests combining two components were carried out in sterile 96-well Microtiter plates. Model beverage was prepared as described above with increasing amounts of two different inhibitors. The concentrations of each inhibitor were presented in 8 equal concentration steps that ranged from 0 to 1-2 times the estimated MIC value of particular yeast for a particular inhibitor. 200 μl of each medium was transferred to a panel of a sterile 96-well Microtiter plate. Completed well plates were stored at 4° C. until further use. For the inoculation of this test 5 μl of a 72 to 84 hours grown culture was used. The OD for every composition was measured 96 hours after inoculation.

[5] = system: Zygosaccharomyces bailii (CBS 6708); experiment: as above; assay type: cell-based; conditions: Z. bailii, model beverage pH about 3.5, 96 hours
Protocol: as §1, §4, §5, §6

Candida albicans [6] = experiment: as above; assay type: cell-based; conditions: C. Albicans, model beverage pH about 3.5, 96 hours
Protocol: as §1, §4, §5, §6

Kluyveromyces marxianus = conditions: culture medium, WO 2009/031041; cited from earlier work
[7] = EGCG 0.07 wt. %, average of two experiments

Compound | MIC (Saccharomyces cerevisiae) [ppm] | MIC [1] | MIC [2] | MIC (Candida albicans [3]) | Maximum OD ([4]; LAE 0.001 wt. %) | Maximum OD ([5]; LAE 0.002 wt. %) | Maximum OD (Candida albicans [6]; LAE 0.002 wt. %) | MIC (Kluyveromyces marxianus) [ppm] | Maximum OD ([5]; ε-polylysine 0.0005 wt. %) | Maximum OD (Candida albicans [6]; ε-polylysine 0.0005 wt. %) | Maximum OD [4, 7] | Maximum OD [5, 7] | Maximum OD (Candida albicans [6]; [7])
CCCCCCCCCCCC(=O)N[C@@H](CCCN=C(N)N)C(=O)OCC [LAE, lauric arginate] | 24 | 30-80 ppm | >70* ppm | >70* ppm | 0.19 | 0.38 | 0.30 | 7 |  |  |  |  | 
ε-Polylysine |  | 30-80 ppm | >40* ppm | >40* ppm |  |  |  |  | 0.40 | 0.32 |  |  | 
O=C(O[C@@H]1Cc2c(O)cc(O)cc2O[C@@H]1c1cc(O)c(O)c(O)c1)c1cc(O)c(O)c(O)c1 [EGCG, Epigallocatechin gallate] |  | 5000 ppm | 2000 ppm | 9000 ppm |  |  |  |  |  |  | 0.28* | 0.28* | 0.40*
